# Reference: ChEMBL document CHEMBL5723582, “Data for DCP probe T-10430” (2024)
# Key:
# [1] = target: Putative adhesion G protein-coupled receptor F2P (Homo sapiens) (UniProt Q8IZF7); assay: RLU of GPR111 at 1.0 µM in the […] PRESTO-Tango GPCRome screen; details: Compound concentration 1.0 uM
# [2] = target: Adhesion G-protein coupled receptor G2 (Homo sapiens) (UniProt Q8IZP9); assay: RLU of GPR64 at 1.0 µM in the […] PRESTO-Tango GPCRome screen; details: Compound concentration 1.0 uM
# [3] = target: Trace amine-associated receptor 9 (Homo sapiens) (UniProt Q96RI9); assay: RLU of TAAR9 at 1.0 µM in the […] PRESTO-Tango GPCRome screen; details: Compound concentration 1.0 uM
# [4] = target: G-protein coupled receptor 55 (Homo sapiens) (UniProt Q9Y2T6); assay: RLU of GPR55 at 1.0 µM in the […] PRESTO-Tango GPCRome screen; details: Compound concentration 1.0 uM
# [5] = target: Uracil nucleotide/cysteinyl leukotriene receptor (Homo sapiens) (UniProt Q13304); assay: RLU of GPR17 at 1.0 µM in the […] PRESTO-Tango GPCRome screen; details: Compound concentration 1.0 uM
# [6] = target: Neuropeptide FF receptor 2 (Homo sapiens) (UniProt Q9Y5X5); assay: RLU of NPFF2 at 1.0 µM in the […] PRESTO-Tango GPCRome screen; details: Compound concentration 1.0 uM
# [7] = target: C5a anaphylatoxin chemotactic receptor 1 (Homo sapiens) (UniProt P21730); assay: RLU of C5A at 1.0 µM in the […] PRESTO-Tango GPCRome screen; details: Compound concentration 1.0 uM
# [8] = target: G protein-coupled receptor 88 (Homo sapiens) (UniProt Q9GZN0); assay: RLU of GPR88 at 1.0 µM in the […] PRESTO-Tango GPCRome screen; details: Compound concentration 1.0 uM
# [9] = system: Pyroglutamylated RFamide peptide receptor (Homo sapiens); assay: RLU of QRFP at 1.0 µM in the […] PRESTO-Tango GPCRome screen; details: Compound concentration 1.0 uM
# [10] = target: Neuropeptide Y receptor type 4 (Homo sapiens) (UniProt P50391); assay: RLU of NPY4R at 1.0 µM in the […] PRESTO-Tango GPCRome screen; details: Compound concentration 1.0 uM
# [11] = target: Metabotropic glutamate receptor 5 (Homo sapiens) (UniProt P41594); assay: RLU of GRM5 at 1.0 µM in the Aequorin PRESTO-Tango GPCRome screen; details: Compound concentration 1.0 uM
# [12] = target: P2Y purinoceptor 11 (Homo sapiens) (UniProt Q96G91); assay: RLU of P2RY11 at 1.0 µM in the […] PRESTO-Tango GPCRome screen; details: Compound concentration 1.0 uM
# [13] = target: Adhesion G protein-coupled receptor G3 (Homo sapiens) (UniProt Q86Y34); assay: RLU of GPR97 at 1.0 µM in the […] PRESTO-Tango GPCRome screen; details: Compound concentration 1.0 uM
# [14] = target: Neuromedin-B receptor (Homo sapiens) (UniProt P28336); assay: RLU of NMBR at 1.0 µM in the […] PRESTO-Tango GPCRome screen; details: Compound concentration 1.0 uM
# [15] = target: Neuromedin-K receptor (Homo sapiens) (UniProt P29371); assay: RLU of TACR3 at 1.0 µM in the […] PRESTO-Tango GPCRome screen; details: Compound concentration 1.0 uM
# [16] = target: G-prodeshotein coupled receptor 4 (Homo sapiens) (UniProt P46093); assay: RLU of GPR4 at 1.0 µM in the […] PRESTO-Tango GPCRome screen; details: Compound concentration 1.0 uM
# [17] = target: Sphingosine 1-phosphate receptor 2 (Homo sapiens) (UniProt O95136); assay: RLU of S1PR2 at 1.0 µM in the […] PRESTO-Tango GPCRome screen; details: Compound concentration 1.0 uM
# [18] = target: C-C chemokine receptor type 3 (Homo sapiens) (UniProt P51677); assay: RLU of CCR3 at 1.0 µM in the […] PRESTO-Tango GPCRome screen; details: Compound concentration 1.0 uM
# [19] = target: Follicle-stimulating hormone receptor (Homo sapiens) (UniProt P23945); assay: RLU of FSHR at 1.0 µM in the […] PRESTO-Tango GPCRome screen; details: Compound concentration 1.0 uM
# [20] = target: Pituitary adenylate cyclase-activating polypeptide type I receptor (Homo sapiens) (UniProt P41586); assay: RLU of ADCYAP1R1 at 1.0 µM in the […] PRESTO-Tango GPCRome screen; details: Compound concentration 1.0 uM
# [21] = target: Delta-type opioid receptor (Homo sapiens) (UniProt P41143); assay: RLU of OPRD1 at 1.0 µM in the […] PRESTO-Tango GPCRome screen; details: Compound concentration 1.0 uM
# [22] = target: C5a anaphylatoxin chemotactic receptor 2 (Homo sapiens) (UniProt Q9P296); assay: RLU of GPR77 at 1.0 µM in the […] PRESTO-Tango GPCRome screen; details: Compound concentration 1.0 uM
# [23] = target: Histamine H1 receptor (Homo sapiens) (UniProt P35367); assay: RLU of HRH1 at 1.0 µM in the Aequorin PRESTO-Tango GPCRome screen; details: Compound concentration 1.0 uM
# [24] = target: G-protein coupled receptor 143 (Homo sapiens) (UniProt P51810); assay: RLU of GPR143 at 1.0 µM in the […] PRESTO-Tango GPCRome screen; details: Compound concentration 1.0 uM
# [25] = target: Prosaposin receptor GPR37 (Homo sapiens) (UniProt O15354); assay: RLU of GPR37 at 1.0 µM in the […] PRESTO-Tango GPCRome screen; details: Compound concentration 1.0 uM
# [26] = target: G-protein coupled receptor family C group 6 member A (Homo sapiens) (UniProt Q5T6X5); assay: RLU of GPRC6A at 1.0 µM in the […] PRESTO-Tango GPCRome screen; details: Compound concentration 1.0 uM
# [27] = target: Probable G-protein coupled receptor 156 (Homo sapiens) (UniProt Q8NFN8); assay: RLU of GPR156 at 1.0 µM in the […] PRESTO-Tango GPCRome screen; details: Compound concentration 1.0 uM
# [28] = target: Thyrotropin receptor (Homo sapiens) (UniProt P16473); assay: RLU of TSHR at 1.0 µM in the […] PRESTO-Tango GPCRome screen; details: Compound concentration 1.0 uM
# [29] = target: Relaxin-3 receptor 2 (Homo sapiens) (UniProt Q8TDU9); assay: RLU of RXFP4 at 1.0 µM in the […] PRESTO-Tango GPCRome screen; details: Compound concentration 1.0 uM
# [30] = target: C-X-C chemokine receptor type 6 (Homo sapiens) (UniProt O00574); assay: RLU of CXCR6 at 1.0 µM in the […] PRESTO-Tango GPCRome screen; details: Compound concentration 1.0 uM
# [31] = target: Secretin receptor (Homo sapiens) (UniProt P47872); assay: RLU of SCTR at 1.0 µM in the […] PRESTO-Tango GPCRome screen; details: Compound concentration 1.0 uM
# [32] = target: Gastrin-releasing peptide receptor (Homo sapiens) (UniProt P30550); assay: RLU of GRPR at 1.0 µM in the Aequorin PRESTO-Tango GPCRome screen; details: Compound concentration 1.0 uM
# [33] = target: G-protein coupled receptor 182 (Homo sapiens) (UniProt O15218); assay: RLU of GPR182 at 1.0 µM in the […] PRESTO-Tango GPCRome screen; details: Compound concentration 1.0 uM
# [34] = RLU of HCTR2 at 1.0 µM in the Aequorin PRESTO-Tango GPCRome screen; details: Homo sapiens; Compound concentration 1.0 uM
# [35] = target: G-protein coupled receptor 37-like 1 (Homo sapiens) (UniProt O60883); assay: RLU of GPR37L1 at 1.0 µM in the […] PRESTO-Tango GPCRome screen; details: Compound concentration 1.0 uM
# Chain of G-protein coupled receptor 37-like 1 (Homo sapiens) (O60883 whole entry): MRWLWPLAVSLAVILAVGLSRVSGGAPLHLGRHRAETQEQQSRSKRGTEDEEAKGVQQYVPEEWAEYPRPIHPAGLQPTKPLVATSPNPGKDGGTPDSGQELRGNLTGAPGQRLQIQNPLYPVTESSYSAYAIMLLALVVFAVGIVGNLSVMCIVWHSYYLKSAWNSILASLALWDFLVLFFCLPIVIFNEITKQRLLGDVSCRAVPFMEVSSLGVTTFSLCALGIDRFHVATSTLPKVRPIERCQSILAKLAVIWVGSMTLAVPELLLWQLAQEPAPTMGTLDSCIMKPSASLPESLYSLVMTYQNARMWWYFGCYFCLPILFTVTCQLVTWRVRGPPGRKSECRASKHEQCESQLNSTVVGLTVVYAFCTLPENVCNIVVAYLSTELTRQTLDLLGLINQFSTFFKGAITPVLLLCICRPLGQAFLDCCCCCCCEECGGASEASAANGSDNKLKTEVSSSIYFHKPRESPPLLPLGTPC
# Chain of Follicle-stimulating hormone receptor (Homo sapiens) (P23945 whole entry): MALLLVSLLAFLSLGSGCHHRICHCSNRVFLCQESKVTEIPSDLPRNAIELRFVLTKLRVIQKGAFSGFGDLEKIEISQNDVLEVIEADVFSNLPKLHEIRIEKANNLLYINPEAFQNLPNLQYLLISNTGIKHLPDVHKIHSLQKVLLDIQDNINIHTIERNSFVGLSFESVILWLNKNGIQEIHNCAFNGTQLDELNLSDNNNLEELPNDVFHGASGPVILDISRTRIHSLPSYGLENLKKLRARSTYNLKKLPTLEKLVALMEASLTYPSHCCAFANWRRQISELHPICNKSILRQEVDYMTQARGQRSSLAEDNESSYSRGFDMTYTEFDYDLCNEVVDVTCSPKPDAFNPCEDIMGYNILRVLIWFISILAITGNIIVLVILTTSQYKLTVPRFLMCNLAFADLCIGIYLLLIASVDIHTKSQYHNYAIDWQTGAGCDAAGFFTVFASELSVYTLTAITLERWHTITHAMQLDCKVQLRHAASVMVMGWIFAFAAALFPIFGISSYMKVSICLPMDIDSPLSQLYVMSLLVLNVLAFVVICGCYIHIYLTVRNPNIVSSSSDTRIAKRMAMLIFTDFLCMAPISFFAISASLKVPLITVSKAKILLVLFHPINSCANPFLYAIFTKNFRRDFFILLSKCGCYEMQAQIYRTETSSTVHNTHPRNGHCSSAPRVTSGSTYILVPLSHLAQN
# Chain of Adhesion G-protein coupled receptor G2 (Homo sapiens) (Q8IZP9 whole entry): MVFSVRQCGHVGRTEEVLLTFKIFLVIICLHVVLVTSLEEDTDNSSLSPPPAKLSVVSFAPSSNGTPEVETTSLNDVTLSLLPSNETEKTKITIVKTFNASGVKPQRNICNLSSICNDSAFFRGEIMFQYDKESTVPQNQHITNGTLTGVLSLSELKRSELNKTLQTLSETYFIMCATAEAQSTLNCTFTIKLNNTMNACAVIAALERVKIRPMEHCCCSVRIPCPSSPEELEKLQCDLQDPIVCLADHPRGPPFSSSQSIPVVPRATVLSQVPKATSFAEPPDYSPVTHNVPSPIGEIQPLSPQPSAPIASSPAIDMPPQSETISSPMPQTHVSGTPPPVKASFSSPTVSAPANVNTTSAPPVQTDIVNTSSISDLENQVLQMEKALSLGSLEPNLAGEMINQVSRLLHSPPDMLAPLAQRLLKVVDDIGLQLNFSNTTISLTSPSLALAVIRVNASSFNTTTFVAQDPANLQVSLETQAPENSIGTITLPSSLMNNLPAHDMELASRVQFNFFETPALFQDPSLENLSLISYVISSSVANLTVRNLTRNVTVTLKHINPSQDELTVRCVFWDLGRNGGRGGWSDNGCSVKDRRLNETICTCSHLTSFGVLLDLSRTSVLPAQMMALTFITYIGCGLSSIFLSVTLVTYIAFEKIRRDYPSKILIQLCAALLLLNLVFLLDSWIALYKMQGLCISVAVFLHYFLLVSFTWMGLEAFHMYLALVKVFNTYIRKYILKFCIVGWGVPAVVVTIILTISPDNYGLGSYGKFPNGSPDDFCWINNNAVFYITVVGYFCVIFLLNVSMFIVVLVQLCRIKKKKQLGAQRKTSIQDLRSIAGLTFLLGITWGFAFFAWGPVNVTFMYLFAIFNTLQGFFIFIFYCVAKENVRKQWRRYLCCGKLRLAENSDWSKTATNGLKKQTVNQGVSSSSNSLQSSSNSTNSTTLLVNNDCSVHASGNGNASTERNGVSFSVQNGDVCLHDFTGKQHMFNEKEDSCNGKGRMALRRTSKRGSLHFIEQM
# Chain of Gastrin-releasing peptide receptor (Homo sapiens) (P30550 whole entry, looked up): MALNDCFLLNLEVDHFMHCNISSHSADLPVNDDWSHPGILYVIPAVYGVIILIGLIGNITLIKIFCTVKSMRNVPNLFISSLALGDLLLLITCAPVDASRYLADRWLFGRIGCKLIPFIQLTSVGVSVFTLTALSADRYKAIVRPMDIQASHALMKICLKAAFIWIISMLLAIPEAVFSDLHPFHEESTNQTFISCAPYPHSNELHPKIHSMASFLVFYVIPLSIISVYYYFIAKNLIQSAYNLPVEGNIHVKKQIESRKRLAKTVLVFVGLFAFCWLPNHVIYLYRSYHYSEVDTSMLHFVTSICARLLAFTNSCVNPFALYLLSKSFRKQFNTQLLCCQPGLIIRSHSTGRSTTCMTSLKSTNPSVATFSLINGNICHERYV
# Chain of Pituitary adenylate cyclase-activating polypeptide type I receptor (Homo sapiens) (P41586 21-468 limits assumed): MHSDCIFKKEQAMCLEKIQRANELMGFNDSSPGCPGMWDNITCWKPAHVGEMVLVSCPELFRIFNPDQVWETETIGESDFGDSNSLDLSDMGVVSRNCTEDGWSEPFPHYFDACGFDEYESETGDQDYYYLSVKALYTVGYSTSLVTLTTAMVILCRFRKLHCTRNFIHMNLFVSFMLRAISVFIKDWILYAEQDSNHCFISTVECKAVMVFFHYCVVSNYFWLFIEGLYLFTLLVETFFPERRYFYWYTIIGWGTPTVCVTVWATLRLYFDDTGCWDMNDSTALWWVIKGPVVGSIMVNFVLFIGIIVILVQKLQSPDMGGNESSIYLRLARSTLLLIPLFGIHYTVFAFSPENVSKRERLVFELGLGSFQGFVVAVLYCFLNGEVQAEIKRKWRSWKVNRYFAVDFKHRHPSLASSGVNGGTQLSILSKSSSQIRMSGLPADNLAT
# Chain of Prosaposin receptor GPR37 (Homo sapiens) (O15354 whole entry): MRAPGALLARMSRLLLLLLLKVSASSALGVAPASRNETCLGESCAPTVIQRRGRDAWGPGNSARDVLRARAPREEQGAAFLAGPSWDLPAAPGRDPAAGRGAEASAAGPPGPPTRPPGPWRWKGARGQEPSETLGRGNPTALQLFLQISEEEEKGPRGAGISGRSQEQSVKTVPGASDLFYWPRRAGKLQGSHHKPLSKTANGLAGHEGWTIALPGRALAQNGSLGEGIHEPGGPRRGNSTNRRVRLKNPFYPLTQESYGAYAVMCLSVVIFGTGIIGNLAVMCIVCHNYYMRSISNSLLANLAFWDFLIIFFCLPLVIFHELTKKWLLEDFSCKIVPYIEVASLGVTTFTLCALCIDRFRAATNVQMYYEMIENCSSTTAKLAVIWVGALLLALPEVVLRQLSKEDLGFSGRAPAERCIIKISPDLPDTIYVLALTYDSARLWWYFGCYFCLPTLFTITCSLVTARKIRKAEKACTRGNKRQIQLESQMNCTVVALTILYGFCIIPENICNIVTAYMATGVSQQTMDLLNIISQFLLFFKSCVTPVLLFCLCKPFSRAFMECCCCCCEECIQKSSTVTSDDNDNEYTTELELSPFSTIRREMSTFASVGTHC
# Chain of P2Y purinoceptor 11 (Homo sapiens) (Q96G91 whole entry): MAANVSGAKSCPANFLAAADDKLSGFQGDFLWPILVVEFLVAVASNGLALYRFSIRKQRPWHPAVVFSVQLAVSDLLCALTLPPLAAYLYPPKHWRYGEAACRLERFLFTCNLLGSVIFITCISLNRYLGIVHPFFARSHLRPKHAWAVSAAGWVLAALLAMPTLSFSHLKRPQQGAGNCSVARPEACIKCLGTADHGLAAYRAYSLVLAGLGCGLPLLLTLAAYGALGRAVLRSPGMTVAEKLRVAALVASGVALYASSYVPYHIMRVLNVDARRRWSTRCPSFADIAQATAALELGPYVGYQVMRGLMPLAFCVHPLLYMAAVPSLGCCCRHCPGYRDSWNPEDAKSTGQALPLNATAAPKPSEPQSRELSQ
# Chain of Adhesion G protein-coupled receptor G3 (Homo sapiens) (Q86Y34 whole entry): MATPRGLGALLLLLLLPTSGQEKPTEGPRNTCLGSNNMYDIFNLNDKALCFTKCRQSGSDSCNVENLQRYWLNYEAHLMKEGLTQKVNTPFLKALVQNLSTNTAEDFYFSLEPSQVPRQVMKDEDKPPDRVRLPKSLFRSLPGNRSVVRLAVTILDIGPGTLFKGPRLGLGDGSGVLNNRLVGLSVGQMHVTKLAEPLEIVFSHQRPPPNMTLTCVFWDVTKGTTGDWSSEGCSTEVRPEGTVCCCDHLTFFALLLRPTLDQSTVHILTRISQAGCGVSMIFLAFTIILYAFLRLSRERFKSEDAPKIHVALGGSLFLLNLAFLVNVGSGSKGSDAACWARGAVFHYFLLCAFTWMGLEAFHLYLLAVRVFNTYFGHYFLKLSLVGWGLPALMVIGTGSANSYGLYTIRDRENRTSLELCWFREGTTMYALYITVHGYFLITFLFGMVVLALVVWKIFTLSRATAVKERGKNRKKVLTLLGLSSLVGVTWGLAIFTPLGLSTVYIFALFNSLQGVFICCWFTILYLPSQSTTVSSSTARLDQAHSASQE
# Chain of Uracil nucleotide/cysteinyl leukotriene receptor (Homo sapiens) (Q13304 whole entry): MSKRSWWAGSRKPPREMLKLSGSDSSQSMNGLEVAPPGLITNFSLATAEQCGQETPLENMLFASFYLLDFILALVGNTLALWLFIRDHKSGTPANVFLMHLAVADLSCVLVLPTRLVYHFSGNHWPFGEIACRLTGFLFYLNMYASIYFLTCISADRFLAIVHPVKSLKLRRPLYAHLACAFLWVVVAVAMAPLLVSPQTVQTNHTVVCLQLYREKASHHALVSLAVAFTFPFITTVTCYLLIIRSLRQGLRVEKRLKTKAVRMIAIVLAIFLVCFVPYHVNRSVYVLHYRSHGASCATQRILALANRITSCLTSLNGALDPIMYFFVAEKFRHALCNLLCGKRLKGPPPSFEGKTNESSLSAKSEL
smiles,measurement,setting,value
CCCCC(=O)N1CC2(C1)CN(c1ccccc1-c1nnn[nH]1)C2,RLU,[1],-1360
same,RLU,[2],8730
same,RLU,[3],-547
same,RLU,[4],602000
same,RLU,[5],897
same,RLU,[6],-116
same,RLU,[7],2280
same,RLU,[8],162
same,RLU,[9],-577
same,RLU,[10],-158
same,RLU,[11],-10100
same,RLU,[12],-216
same,RLU,[13],2050
same,RLU,[14],937
same,RLU,[15],550
same,RLU,[16],-970
same,RLU,[17],401
same,RLU,[18],2420
same,RLU,[19],-865
same,RLU,[20],1630
same,RLU,[21],1290
same,RLU,[22],351
same,RLU,[23],13500
same,RLU,[24],-2070
same,RLU,[25],-1510
same,RLU,[26],-9110
same,RLU,[27],1540
same,RLU,[28],-406
same,RLU,[29],68.6
same,RLU,[30],761
same,RLU,[31],-71.4
same,RLU,[32],-1250
same,RLU,[33],598
same,RLU,[34],2840
same,RLU,[35],153000
